Laboratory results from PMC7922803, “Development and Validation of an LC-MS/MS Method for Quantification of the Novel Antibacterial Candidate DA-7010 in Plasma and Application to a Preclinical Pharmacokinetic Study” (Pharmaceuticals, 2021).
Several values for one entry are separate records, joined by “and”; a condition that tells them apart may be missing. Equal values may be shown once.

What was measured:
[1] = Stability of DA-7010 in plasma, summary over all species; type: in vitro ADME, mice, rats, and dogs
Protocol: (§1) The stability of DA-7010 in the plasma from the mice, rats, and dogs was evaluated by analyzing 3 replicates of low, medium, and high QC samples under various storage conditions: the bench-top short-term stability (at room temperature for 8 h), post-preparative stability (prepared samples kept in LC vials at 4 °C for 24 h), freeze–thaw stability (3 freeze/thaw (−20 °C/room temperature) cycles), and long-term freezing stability (−20 °C for 1 month). The analyte was determined to be stable when the estimated recovery (determined concentration/nominal concentration × 100%) was in the range of 85–115% and the RSD was < 15%.

[2] = Pharmacokinetic study after single oral administration to rats; type: in vivo; details: male, Sprague-Dawley, plasma, rat
Source text: (§2) The validated method was applied to pharmacokinetic studies of DA-7010 in mice, rats, and dogs. The protocols for the animal study were approved by the Department of Laboratory Animals, Institutional Animal Care and Use Committee (IACUC), on the Sungsim Campus of the Catholic University of Korea (approval no. 2014-022) or by IACUC of Biotoxtech (Cheongju, South Korea) (approval no. 140765). Male ICR mice and Sprague-Dawley rats (~8 weeks old) were purchased from Samtaco Bio (Osan, South Korea). Male beagle dogs (~10 months old), which are products from Beijing Marshall Biotechnology (Beijing, China), were used for this study. The accommodation and handling procedures for the animals were similar to those previously reported. Prior to dosing, the animals were fasted for 15 h and allowed to drink water freely. DA-7010 hydrochloride was administered in the pharmacokinetic study, and the dose of DA-7010 described below is based on the free base form of DA-7010.
For the rat, the carotid artery was cannulated for serial blood sampling. DA-7010 (dissolved in distilled water) at a dose of 3 mg (in 2 mL) per kilogram was administered orally to the rats (n = 7) using gastric gavage. Blood samples (~50 μL) were collected at 0, 5, 10, 20, 30, 60, 120, 240, 360, 480, and 720 min via the carotid artery following the oral administration of the drug. The cannula was flushed immediately after each blood sampling to prevent blood clotting using a 0.3 mL heparinized 0.9% NaCl-injectable solution (20 units/mL). The same procedure described above was used for the collection and storage of the plasma samples.
(§3) The pharmacokinetic parameters were calculated using noncompartmental analyses (WinNonlin; Pharsight Corporation, Mountain View, CA, USA). The AUC0-∞ was calculated using the trapezoidal rule-extrapolation method. The Cmax and Tmax were read directly from the experimental data.

[3] = Pharmacokinetic study after single oral administration to dogs; type: in vivo
Source text: as §2
For the oral administration of DA-7010 in dogs, 3 mg/kg DA-7010 was loaded in a gelatin capsule (size 12, Torpac Inc., Fairfield, NJ, USA) without other excipients. Approximately 2 mL of blood was collected via the cephalic vein using a heparinized (100 IU/mL) 23 G syringe at pre-dose and 15, 30, 45, 60, 120, 240, 360, 480, 720, and 1440 min after the administration of the drug. The collection and storage of each plasma sample (25 μL) and extra plasma sample were performed using the same procedure described above.
as §3

[4] = Stability of DA-7010 in dog plasma under various storage conditions; type: in vitro ADME; details: n = 3, mean ± SD
Protocol: as §1

[5] = Stability of DA-7010 in mouse plasma under various storage conditions; type: in vitro ADME; details: n = 3, mean ± SD
Protocol: as §1

[6] = Stability of DA-7010 in rat plasma under various storage conditions; type: in vitro ADME; details: n = 3, mean ± SD
Protocol: as §1

[7] = test system: Gram-negative bacteria (except for Pseudomonas aeruginosa); design: method as in earlier work; details: cited from earlier work
[8] = test system: carbapenem-resistant Acinetobacter baumannii; design: method as in earlier work; details: mice systemically infected with carbapenem-resistant Acinetobacter baumannii; cited from earlier work
[9] = Pharmacokinetic study after single oral administration to mice; type: in vivo; details: male, ICR, mouse, plasma
Source text: as §2
DA-7010 (dissolved in distilled water) at a dose of 3 mg (in 10 mL) per kilogram was administered orally to the mouse groups A and B (n = 6 each) using gastric gavage. Blood samples (~ 50 μL) were collected into separate heparinized capillary tubes from the retro-orbital plexuses of mice that were under light anesthesia, which was achieved by isoflurane inhalation at 5, 30, 120, and 480 min for group A and 15, 60, 240, and 600 min for group B following the oral administration of DA-7010. The collected sample was immediately centrifuged, and a 25 μL plasma sample was stored at −20 °C until it was used for the LC-MS/MS analyses of DA-7010.
as §3

[10] = representative sample 4 h after oral 3 mg/kg, read-out: Plasma concentration of DA-7010
[11] = rats (n = 7), single oral dose 3 mg/kg, mean ± SD
[12] = male, beagle, dog, plasma, dogs (n = 4), single oral dose 3 mg/kg in gelatin capsule, mean ± SD
[13] = 3 freeze/thaw (–20 °C/room temperature) cycles, nominal 30 ng/mL
[14] = 3 freeze/thaw (–20 °C/room temperature) cycles, nominal 400 ng/mL
[15] = 3 freeze/thaw (–20 °C/room temperature) cycles, nominal 8000 ng/mL
[16] = long term (‒20 °C over 1 month), nominal 30 ng/mL
[17] = long term (‒20 °C over 1 month), nominal 400 ng/mL
[18] = long term (‒20 °C over 1 month), nominal 8000 ng/mL
[19] = prepared plasma samples in LC vials, post-preparative (prepared samples 4 °C 24 h), nominal 30 ng/mL
[20] = prepared plasma samples in LC vials, post-preparative (prepared samples 4 °C 24 h), nominal 400 ng/mL
[21] = prepared plasma samples in LC vials, post-preparative (prepared samples 4 °C 24 h), nominal 8000 ng/mL
[22] = short term (room temperature 8 h), nominal 30 ng/mL
[23] = short term (room temperature 8 h), nominal 400 ng/mL
[24] = short term (room temperature 8 h), nominal 8000 ng/mL
[25] = mice, single oral dose 3 mg/kg, from mean concentration–time profile

SMILES: C[C@@H]1COB2O[C@H](CN)c3cccc(c32)O1 [DA-7010, ((2S,7R)-7-methyl-7,8-dihydro-2H-1,6,9-trioxa-9a-borabenzo[cd]azulen-2-yl)methanamine]
- Stability, mean recoveries ([1]; 8 h at room temperature, 24 h in LC vial at 4 °C after preparation, 1 month at –20 °C): > 85.5%
- Stability, mean recoveries ([1]; after three freeze/thaw (–20 °C/room temperature) cycles): > 87.7%
- concentration at 4 h [2, 10]: 648 ng/mL
- AUC(0-inf) [2, 11]: 5320 ng·h/mL
- Cmax [2, 11]: 1330 ± 427 ng/mL
- half-life ([2]; rats (n = 7), single oral dose 3 mg/kg, mean ± SD, read-out: Terminal half-life): 2.88 ± 0.81 h
- Tmax ([2]; rats (n = 7), single oral dose 3 mg/kg, median (range)): 0.333 h
- AUC(0-inf) [3, 12]: 21800 ng·h/mL
- Cmax [3, 12]: 1820 ± 90.1 ng/mL
- half-life ([3]; male, beagle, dog, plasma, dogs (n = 4), single oral dose 3 mg/kg in gelatin capsule, mean ± SD, read-out: Terminal half-life): 7.53 ± 0.563 h
- Tmax ([3]; male, beagle, dog, plasma, dogs (n = 4), single oral dose 3 mg/kg in gelatin capsule, median (range)): 1 h
- concentration at 4 h ([3]; male, beagle, plasma, dog, representative sample 4 h after oral 3 mg/kg, read-out: Plasma concentration of DA-7010): 1950 ng/mL
- Systemic exposure in dogs relative to mice or rats ([3]; single oral dose 3 mg/kg): approximately four times higher
- recovery at 30 ng/mL [4, 13]: 110 ± 3.32%
- recovery at 400 ng/mL [4, 14]: 107 ± 2.01%
- recovery at 8000 ng/mL [4, 15]: 114 ± 0.0718%
- recovery at 1 month, 30 ng/mL [4, 16]: 113 ± 0.5%
- recovery at 1 month, 400 ng/mL [4, 17]: 97.3 ± 1.22%
- recovery at 1 month, 8000 ng/mL [4, 18]: 111 ± 3.13%
- recovery at 24 h, 30 ng/mL [4, 19]: 110 ± 5.48%
- recovery at 24 h, 400 ng/mL [4, 20]: 108 ± 1.72%
- recovery at 24 h, 8000 ng/mL [4, 21]: 116 ± 2.34%
- recovery at 8 h, 30 ng/mL [4, 22]: 107 ± 3.08%
- recovery at 8 h, 400 ng/mL [4, 23]: 92.9 ± 1.62%
- recovery at 8 h, 8000 ng/mL [4, 24]: 108 ± 1.22%
- recovery at 30 ng/mL [5, 13]: 109 ± 6.63%
- recovery at 400 ng/mL [5, 14]: 91.2 ± 2.22%
- recovery at 8000 ng/mL [5, 15]: 87.7 ± 2.58%
- recovery at 1 month, 30 ng/mL [5, 16]: 106 ± 1.54%
- recovery at 1 month, 400 ng/mL [5, 17]: 95.5 ± 3.04%
- recovery at 1 month, 8000 ng/mL [5, 18]: 88.5 ± 1.77%
- recovery at 24 h, 30 ng/mL [5, 19]: 106 ± 5.14%
- recovery at 24 h, 400 ng/mL [5, 20]: 92.7 ± 2.58%
- recovery at 24 h, 8000 ng/mL [5, 21]: 89.9 ± 7.84%
- recovery at 8 h, 30 ng/mL [5, 22]: 109 ± 4.97%
- recovery at 8 h, 400 ng/mL [5, 23]: 97.5 ± 6.48%
- recovery at 8 h, 8000 ng/mL [5, 24]: 89 ± 2.24%
- recovery at 30 ng/mL [6, 13]: 107 ± 5.92%
- recovery at 400 ng/mL [6, 14]: 94.8 ± 6.2%
- recovery at 8000 ng/mL [6, 15]: 100 ± 0.407%
- recovery at 1 month, 30 ng/mL [6, 16]: 85.5 ± 0.618%
- recovery at 1 month, 400 ng/mL [6, 17]: 95.2 ± 3.3%
- recovery at 1 month, 8000 ng/mL [6, 18]: 107 ± 2.67%
- recovery at 24 h, 30 ng/mL [6, 19]: 95.5 ± 3.65%
- recovery at 24 h, 400 ng/mL [6, 20]: 101 ± 1.33%
- recovery at 24 h, 8000 ng/mL [6, 21]: 111 ± 4.06%
- recovery at 8 h, 30 ng/mL [6, 22]: 110 ± 4.64%
- recovery at 8 h, 400 ng/mL [6, 23]: 97.9 ± 0.394%
- recovery at 8 h, 8000 ng/mL [6, 24]: 104 ± 0.647%
- minimum inhibitory concentration (MIC) [7]: 0.25 to 2 µg/mL
- ED50 (effective oral dose that protected 50% of mice) [8]: 3 mg/kg and 1.9 to 3 mg/kg
- Cmax [9, 25]: 1280 ng/mL
- Tmax [9, 25]: 0.25 h
- AUC(0-inf) ([9]; mice, single oral dose 3 mg/kg, from mean concentration–time profile (n = 6 per point)): 3920 ng·h/mL
- half-life ([9]; mice, single oral dose 3 mg/kg, from mean concentration–time profile, read-out: Terminal half-life): 2.08 h
- concentration at 4 h [9, 10]: 334 ng/mL
